#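 All cell lines were grown in 96-well plates and treated with compound for 48 hours. At the TGI there is no net growth.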
# Tests used:
# Test in all cases: inhibition of tumour cell growth, NCI panel, 48 h
# [1] = test system: OVCAR-5 ovarian
# [2] = test system: KM20L2 colon
# [3] = test system: DMS 273 small cell lung
# [4] = test system: HCC-2998 colon
# [5] = test system: NCI-H460 lung
# [6] = test system: NCI-H23 lung
# [7] = test system: IGROV1 ovarian
# [8] = test system: KM12 colon
# [9] = test system: SK-MEL-2 melanoma
# [10] = test system: HL-60(TB) leukemia
# [11] = test system: SF-295 CNS
# [12] = test system: RXF 393 renal
# [13] = test system: UACC-257 melanoma
# [14] = test system: CAKI-1 renal
# [15] = test system: NCI-H522 lung
# [16] = test system: CCRF-CEM leukemia
# [17] = test system: OVCAR-3 ovarian
# [18] = test system: EKVX NSCLC
# [19] = test system: UACC-62 melanoma
# [20] = test system: SNB-19 CNS
# [21] = test system: HOP-92 NSCLC
# [22] = test system: SF-268 CNS
# [23] = test system: SK-OV-3 ovarian
# [24] = test system: M14 melanoma
# [25] = test system: COLO 205 colon
# [26] = test system: LOX IMVI melanoma
# [27] = test system: HOP-18 NSCLC
# [28] = test system: A549 NSCLC
# [29] = test system: HCT-15 colon
# [30] = test system: DLD-1 colon
# [31] = test system: K-562 leukemia
# [32] = test system: HOP-62 NSCLC
# [33] = test system: SR leukemia
# [34] = test system: OVCAR-8 ovarian
# [35] = test system: U251 CNS
# [36] = test system: MALME-3M melanoma
# [37] = test system: A498 renal
# [38] = test system: SNB-75 CNS
# [39] = test system: SK-MEL-28 melanoma
# [40] = test system: UO-31 renal
# [41] = test system: MOLT-4 leukemia
# [42] = test system: SK-MEL-5 melanoma
# [43] = test system: RXF-631 renal
# [44] = test system: SNB-78 CNS
# [45] = test system: SN12C renal
# [46] = test system: HCT-116 colon
# [47] = test system: HT29 colon
# [48] = test system: RPMI-8226 leukemia
# [49] = test system: 786-0 renal
# [50] = test system: SF-539 CNS
# [51] = test system: DMS 114 small cell lung
# [52] = test system: TK-10 renal
# [53] = test system: XF 498 CNS
# [54] = test system: LXFL 529 NSCLC
# [55] = test system: ACHN renal
# [56] = test system: SW-620 colon
# [57] = test system: NCI-H226 lung
# [58] = test system: MCF7 breast
# [59] = test system: M19-MEL melanoma
# [60] = test system: PC-3 prostate
# [61] = test system: MDA-MB-231 breast
# [62] = test system: MDA-MB-435
# [63] = test system: NCI/ADR-RES ovarian
# [64] = test system: OVCAR-4 ovarian
# [65] = test system: HS 578T breast
# [66] = test system: DU-145 prostate
# [67] = test system: BT-549 breast
# [68] = test system: T-47D breast
# [69] = test system: MDA-N
smiles,measurement,setting,value
N#CC1=C(Cl)NC(Cl)=C(C#N)C1c1ccc(Cl)cc1,TGI,[1],> 100 µM
same,TGI,[2],39.3 µM
same,TGI,[3],31 µM
same,TGI,[4],33.2 µM
same,TGI,[5],31.5 µM
same,TGI,[6],32.8 µM
same,TGI,[7],32.9 µM
same,TGI,[8],33 µM
same,TGI,[9],27.5 µM
same,TGI,[10],45.4 µM
same,TGI,[11],53.9 µM
same,TGI,[12],32.9 µM
same,TGI,[13],34.7 µM
same,TGI,[14],43.9 µM
same,TGI,[15],25.8 µM
same,TGI,[16],65.8 µM
same,TGI,[17],27 µM
same,TGI,[18],39.4 µM
same,TGI,[19],30.5 µM
same,TGI,[20],31 µM
same,TGI,[21],30.5 µM
same,TGI,[22],33 µM
same,TGI,[23],31.7 µM
same,TGI,[24],30.5 µM
same,TGI,[25],30.3 µM
same,TGI,[26],29.6 µM
same,TGI,[27],33.6 µM
same,TGI,[28],37.1 µM
same,TGI,[29],29 µM
same,TGI,[30],32 µM
same,TGI,[31],28.5 µM
same,TGI,[32],33.1 µM
same,TGI,[33],44.1 µM
same,TGI,[34],29.7 µM
same,TGI,[35],29.8 µM
same,TGI,[36],38.7 µM
same,TGI,[37],81.3 µM
same,TGI,[38],28.3 µM
same,TGI,[39],41.4 µM
same,TGI,[40],30.8 µM
same,TGI,[41],39.3 µM
same,TGI,[42],30.7 µM
same,TGI,[43],29.5 µM
same,TGI,[44],72.5 µM
same,TGI,[45],30.9 µM
same,TGI,[46],34.4 µM
same,TGI,[47],30.1 µM
same,TGI,[48],37.5 µM
same,TGI,[49],29.2 µM
same,TGI,[50],33.2 µM
same,TGI,[51],28.8 µM
same,TGI,[52],32.5 µM
same,TGI,[53],27.4 µM
same,TGI,[54],29.9 µM
same,TGI,[55],34.2 µM
same,TGI,[56],26.3 µM
same,TGI,[57],44.7 µM
COc1cc(Nc2nc3c(N)cc(C(F)(F)F)cc3nc2-c2ccccc2)cc(OC)c1OC,TGI,[1],> 100 µM
same,TGI,[2],99.9 µM
same,TGI,[3],> 100 µM
same,TGI,[4],> 100 µM
same,TGI,[5],> 100 µM
same,TGI,[6],> 100 µM
same,TGI,[7],> 100 µM
same,TGI,[58],> 100 µM
same,TGI,[59],> 100 µM
same,TGI,[8],> 100 µM
same,TGI,[9],> 100 µM
same,TGI,[10],> 100 µM
same,TGI,[11],53.3 µM
same,TGI,[60],> 89.4 µM
same,TGI,[61],> 95.5 µM
same,TGI,[12],36.2 µM
same,TGI,[62],> 100 µM
same,TGI,[13],> 100 µM
same,TGI,[63],> 100 µM
same,TGI,[14],> 100 µM
same,TGI,[15],> 92 µM
same,TGI,[16],> 100 µM
same,TGI,[17],> 100 µM
same,TGI,[18],> 100 µM
same,TGI,[19],> 92.3 µM
same,TGI,[20],> 91.5 µM
same,TGI,[64],58.8 µM
same,TGI,[21],16.7 µM
same,TGI,[22],> 100 µM
same,TGI,[23],> 92.2 µM
same,TGI,[24],> 100 µM
same,TGI,[25],> 100 µM
same,TGI,[26],> 100 µM
same,TGI,[27],> 81 µM
same,TGI,[28],> 100 µM
same,TGI,[29],> 100 µM
same,TGI,[65],> 83.6 µM
same,TGI,[31],> 100 µM
same,TGI,[32],> 86.1 µM
same,TGI,[33],> 100 µM
same,TGI,[34],> 100 µM
same,TGI,[35],> 89.2 µM
same,TGI,[36],75.9 µM
same,TGI,[37],7.36 µM
same,TGI,[66],> 100 µM
same,TGI,[38],53.8 µM
same,TGI,[39],> 100 µM
same,TGI,[67],> 83.5 µM
same,TGI,[40],> 100 µM
same,TGI,[41],> 100 µM
same,TGI,[42],83 µM
same,TGI,[43],> 85.2 µM
same,TGI,[68],> 83 µM
same,TGI,[45],> 100 µM
same,TGI,[46],> 100 µM
same,TGI,[47],> 100 µM
same,TGI,[48],> 100 µM
same,TGI,[49],74.4 µM
same,TGI,[69],> 100 µM
same,TGI,[50],> 74 µM
same,TGI,[51],> 100 µM
same,TGI,[52],> 95.4 µM
same,TGI,[53],47.9 µM
same,TGI,[54],> 100 µM
same,TGI,[55],> 100 µM
same,TGI,[56],> 100 µM
same,TGI,[57],> 88.5 µM

# — PubChem BioAssay (NCI)
